The values below come from ChEMBL document CHEMBL1201862, “PubChem BioAssay data set” (2004).

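Step 1: Grow cells in 96-well plates. Step 2: Expose to compound for 48 hours at 5 concentrations. Step 3: Interpolate endpoints linearly; if unreached, use highest concentration. Here, GI50 denotes the concentration required for 50% inhibition of growth.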 Calls of active or inactive are those of the source. No stated cut-off is given here; in the data, active = GI50 up to about 1.1 µM and inactive = higher.

Holding throughout (assay): NCI-60 cell line screen, 48 h
Assay [1] deals with SK-MEL-2.
In assay [2] the test system is COLO 205.
Assay [3] relates to PC-3.
The test system of assay [4] is OVCAR-5.
Assay [5] concerns M14.
Assay [6] relates to UACC-257.
The test system of assay [7] is NCI-H23.
Assay [8] relates to KM12.
Assay [9] deals with MDA-MB-435.
For assay [10], the system named is SF-268.
Assay [11] deals with OVCAR-8.
Assay [12] has as its system Malme-3M.
For assay [13], the system named is CCRF-CEM.
Assay [14] has as its system SF-295.
Assay [15] relates to SK-OV-3.
For assay [16], the system named is U-251.
In assay [17] the test system is OVCAR-4.
Assay [18] has as its system UO-31.
The subject of assay [19] is K562.
Assay [20] relates to MOLT-4.

In the case of `N#Cc1c(-c2ccccc2)c(/C=N/c2ccc(Cl)cc2)c(=O)n2c1[nH]c1ccccc12`, the GI50 in assay [1] is > 100 µM (inactive); in [2], 83 µM (inactive); in assay [3], > 100 µM (inactive); in assay [4] it was > 100 µM (inactive); in [5], > 100 µM (inactive); in assay [6], > 100 µM (inactive). In addition, the GI50 is > 100 µM (inactive) in assay [7]; 54.1 µM (inactive) in assay [8]; > 100 µM (inactive) in [9]; > 100 µM (inactive) in assay [10]; > 100 µM (inactive) in [11]; > 100 µM (inactive) in assay [12]. In addition, the GI50 in assay [13] is 21.4 µM (inactive); in assay [14] it was 50.5 µM (inactive); in assay [15], > 100 µM (inactive); in assay [16] it was > 100 µM (inactive); in [17] it was > 100 µM (inactive); in assay [18] it was 34.4 µM (inactive).
For `CCCCOC(=O)NC(Nc1ccc(S(=O)(=O)Nc2ccc(OC)nn2)cc1)(C(F)(F)F)C(F)(F)F`, the GI50 in [2], in assay [3], in [4], in [5], in assay [6] and in assay [7] was > 100 µM (inactive) throughout. The GI50 in assay [19], in [8], in assay [9], in [10], in [11] and in assay [12] was > 100 µM (inactive) in each case. In addition, the GI50 in assay [13], in assay [14], in [15], in assay [16], in [20] and in assay [17] was > 100 µM (inactive) throughout. In assay [18], the GI50 was > 100 µM (inactive).
On to `COc1ccc(C(O)c2ccc3c(c2)OCO3)cc1` (stereo not drawn), for which the GI50 in assay [2], in assay [3], in assay [4], in assay [5], in assay [6] and in assay [7] was > 100 µM (inactive) each time. The GI50 in assay [19], in [8], in assay [9], in [10], in assay [11] and in [12] was > 100 µM (inactive) each time. Besides, the GI50 was > 100 µM (inactive) in [13]; > 100 µM (inactive) in [14]; > 100 µM (inactive) in [15]; > 100 µM (inactive) in assay [16]; > 100 µM (inactive) in assay [20]; 67.6 µM (inactive) in assay [17]. Besides, the GI50 in assay [18] is 74.1 µM (inactive).
As for `CC(=O)OCc1cc(OC(C)=O)c2cc3c(OC(C)=O)cccc3c(OC(C)=O)c2c1`, the GI50 was 6.67 µM (inactive) in assay [2]; 16.5 µM (inactive) in [3]; 18.8 µM (inactive) in [4]; 12.5 µM (inactive) in assay [5]; 22 µM (inactive) in assay [6]; 17.1 µM (inactive) in assay [7]. For the same compound, the GI50 in assay [19] is 19.2 µM (inactive); in assay [9], 17.7 µM (inactive); in assay [10] it was 21.2 µM (inactive); in assay [11], 13.3 µM (inactive); in [12] it was 1.64 µM (inactive); in assay [13] it was > 10 µM (inactive). Moreover, the GI50 in [14] is 13.6 µM (inactive); in assay [15], 18.5 µM (inactive); in [16], 15.6 µM (inactive); in assay [20], 15.2 µM (inactive); in [17], 17.8 µM (inactive); in [18] it was 17 µM (inactive).
Consider `CSC1=C(C(=O)Nc2ccc(Cl)cc2)C(N)=NC1=O`, for which the GI50 in [1], in assay [2], in [3], in assay [4], in assay [5] and in assay [6] was > 100 µM (inactive) in each case. The GI50 in assay [7], in assay [19], in [8], in assay [9], in [10] and in [11] was > 100 µM (inactive) throughout. The GI50 in assay [12], in assay [13], in assay [15], in assay [16], in assay [20] and in assay [17] was > 100 µM (inactive) in each case. Also, the GI50 in [18] was 45.1 µM (inactive).
In the case of `CCCCCCCCCC/C=C/CC(=O)SCCNC(=O)CCNC(=O)[C@@H](O)C(C)(C)COP(=O)(O)OP(=O)(O)OCC1OC(n2cnc3c(N)ncnc32)C(O)C1OP(=O)(O)O` (stereo partly drawn), the GI50 in assay [2], in assay [3], in [4], in [5], in [6] and in [7] was > 10 µM (inactive) in each case. Besides, the GI50 in assay [19], in assay [8], in assay [9], in assay [10], in assay [11] and in assay [12] was > 10 µM (inactive) in each case. The GI50 in assay [13], in assay [14], in assay [15], in assay [16], in assay [20] and in assay [17] was > 10 µM (inactive) each time.
For `O=c1[nH]c(=O)n(C2CC(O)C(CO)O2)cc1/N=N/NCCCc1ccccc1` (stereo not drawn), the GI50 in assay [1], in assay [2], in assay [3], in [4], in [5] and in assay [6] was > 100 µM (inactive) each time. Moreover, the GI50 in assay [7], in assay [8], in assay [9], in assay [10], in [11] and in assay [12] was > 100 µM (inactive) throughout. In addition, the GI50 in [13] is > 100 µM (inactive); in assay [14], > 100 µM (inactive); in assay [15], > 100 µM (inactive); in assay [20], > 100 µM (inactive); in assay [17], > 100 µM (inactive); in assay [18], < 0.01 µM (active).
For the compound `N#CCCN(CCC#N)c1ccc(/C=C2\N=C(c3ccccc3)N(c3ccc(Cl)cc3)C2=O)cc1`, the GI50 in [1] was 76.6 µM (inactive); in [2], > 100 µM (inactive); in assay [3], > 100 µM (inactive); in assay [4], > 100 µM (inactive); in assay [5], > 100 µM (inactive); in assay [6] it was > 100 µM (inactive). The GI50 in assay [19] was 48 µM (inactive); in assay [8], 58.7 µM (inactive); in assay [9] it was 45.5 µM (inactive); in [10], > 100 µM (inactive); in assay [11], > 100 µM (inactive); in assay [12], > 100 µM (inactive). The GI50 in [13] was > 100 µM (inactive); in assay [14], 30.3 µM (inactive); in assay [15], > 100 µM (inactive); in [16], > 100 µM (inactive); in assay [20], > 100 µM (inactive); in assay [17] it was > 100 µM (inactive). Also, in [18], the GI50 was 45.4 µM (inactive).
Take `CCOC(=O)Cc1cc(=O)[nH]c(-n2[nH]c(C)c(CCO)c2=O)n1`: the GI50 in [1], in assay [2], in assay [3], in assay [4], in [5] and in [6] was > 100 µM (inactive) throughout. Besides, the GI50 in assay [7], in assay [19], in [8], in [9], in assay [10] and in assay [11] was > 100 µM (inactive) in each case. Also, the GI50 in [12], in assay [13], in assay [14], in [15], in assay [16] and in assay [17] was > 100 µM (inactive) throughout. Further, in assay [18], the GI50 was > 100 µM (inactive).
With `CC(c1ccccc1)n1c2ccccc2c2c(N)ncnc21` (stereo not drawn), the GI50 in assay [1] is 23.7 µM (inactive); in assay [3], 17.7 µM (inactive); in [4], 18.2 µM (inactive); in [5], 18.8 µM (inactive); in [6], 17.2 µM (inactive); in assay [7] it was 20.4 µM (inactive). The GI50 in assay [19] was 24.7 µM (inactive); in assay [9] it was 16.9 µM (inactive); in assay [10] it was 21.1 µM (inactive); in assay [11], 17.1 µM (inactive); in assay [12] it was 21.2 µM (inactive); in assay [13], 27.8 µM (inactive). For the same compound, the GI50 in assay [14] was 17 µM (inactive); in assay [15], 14.2 µM (inactive); in assay [16], 16.7 µM (inactive); in assay [20] it was 23 µM (inactive); in assay [17], 13.6 µM (inactive); in assay [18] it was 9.16 µM (inactive).
Regarding `CC(=O)O[C@H]1C(=O)[C@@]2(C)[C@H]([C@H](OC(=O)c3ccccc3)[C@]3(O)C[C@H](OC(=O)[C@H](O)[C@@H](NC(=O)c4ccccc4)c4ccccc4)C(C)=C1C3(C)C)[C@]1(OC(C)=O)CO[C@@H]1C[C@@H]2O` [PACLITAXEL], the GI50 in [2] was 0.00303 µM (active); in assay [3] it was 0.0182 µM (active); in [4], 0.0783 µM (active); in [5] it was 0.0229 µM (active); in assay [7], 0.00396 µM (active); in assay [9] it was 0.00395 µM (active). The GI50 is 0.00658 µM (active) in assay [10]; 0.029 µM (active) in assay [12]; 0.00267 µM (active) in [13]; 0.00881 µM (active) in assay [15]; 0.00384 µM (active) in assay [16]; 0.486 µM (active) in assay [17]. Besides, in [18], the GI50 was 1.09 µM (active).
